# Patent publication US11116747B2, “Compositions comprising proanthocyanidins and oenothein B” (Nugerontix Limited, priority 2014, dated 2021)
# Assays:
# [1] = test system: bovine aortic endothelial cells; assay: Binding of biotinylated-OPC to endothelial cells (neutravidin-horseradish peroxidase/TMB detection); type: cell-based; details: oenothein B 30 min preincubation, then biotinylated-OPC 1 μg/ml with oenothein B 30 min, FIG. 1(C)
# Description: Bovine aortic endothelial cells were incubated with oenothein B (μg/ml) from pomegranate juice for 30 min before addition of biotinylated-OPC (1 μg/ml) alone or with oenothein B (μg/ml) for 30 min. After removal of the incubation mixture, bound biotinylated-OPC was detected by incubation with neutravidin-horseradish peroxidase for 1 h; followed by addition of TMB substrate for 30 min after cells had been rinsed twice to remove excess neutravidin-horseradish peroxidase. Binding is indicated relative to biotinylated-OPC alone after subtraction of background signal. (All data are shown as mean±SD; *=P<0.05; **=P<0.01; ***=P<0.001 indicates significant differences from basal or control values). […] From this it can be concluded that oenothein B increases the affinity of endothelial cells for procyanidins, and enhances the effectiveness of procyanidins for reversing endothelial dysfunction.
# [2] = test system: Kruppel-like factor 2 (KLF2) mRNA; assay: KLF2 mRNA levels in endothelial cells by qRT-PCR; type: cell-based, bovine; details: 24 h; OTb 1 μg/ml, Ap-OPC 1 μg/ml; normalised to RNA polymerase 2; FIG. 4(A)
# Description: (§1) The effects on endothelin-1 synthesis of purified procyanidins and ellagitannins, either alone or in combination, are tested on human, bovine or porcine aortic endothelial cells cultured in multi-well plates. Cells are grown in a CO2 incubator with specific growth media until becoming confluent. Purified extracts, chromatography fractions, or isolated procyanidins and ellagitannins are evaluated after dilution in cell culture media and then incubated for up to 24 h with the cultured cells. At the end of the incubation period cell culture media samples are collected, and endothelin-1 synthesis is determined by immunoassay of the media samples. ET-1 release for each treated well is expressed as a percentage of basal release from control wells containing cells incubated with cell culture medium alone. Data are compared and analysed for statistically significant differences using life sciences software such as Graphpad Prism (available from www.graphpad.com). At the end of the incubation period cells are lysed to obtain mRNA to measure changes in gene expression that indicate improved endothelial function. Analyses of relative levels of mRNA transcripts are undertaken by quantitative reverse transcription polymerase chain reaction (qRT-PCR) (Journal of Agricultural and Food Chemistry, 2010, 58: 4008-13). […]
# endothelin-1 synthesis = assay: Inhibition of endothelin-1 synthesis by endothelial cells (immunoassay of conditioned media); type: cell-based, bovine; details: for endothelin-1 synthesis, percentage of basal values: Rb-ET 2 μg/ml, GS-OPC 1 μg/ml, alone or in combination
# Description: The effects on endothelin-1 synthesis of purified procyanidins and ellagitannins, either alone or in combination, are tested on human, bovine or porcine aortic endothelial cells cultured in multi-well plates. Cells are grown in a CO2 incubator with specific growth media until becoming confluent. Purified extracts, chromatography fractions, or isolated procyanidins and ellagitannins are evaluated after dilution in cell culture media and then incubated for up to 24 h with the cultured cells. At the end of the incubation period cell culture media samples are collected, and endothelin-1 synthesis is determined by immunoassay of the media samples. ET-1 release for each treated well is expressed as a percentage of basal release from control wells containing cells incubated with cell culture medium alone. Data are compared and analysed for statistically significant differences using life sciences software such as Graphpad Prism (available from www.graphpad.com). At the end of the incubation period cells are lysed to obtain mRNA to measure changes in gene expression that indicate improved endothelial function. Analyses of relative levels of mRNA transcripts are undertaken by quantitative reverse transcription polymerase chain reaction (qRT-PCR) (Journal of Agricultural and Food Chemistry, 2010, 58: 4008-13).
# Oenothein B (>95% purity) was purified from pomegranate juice by Sephadex LH20 chromatography and reverse-phase HPLC (step 1—Apex Prepsil 8 μm C-18 10×250 mm HPLC column—Jones Chromatography; step 2 Luna 5 μm PFP(2) 4.6×250 mm HPLC column—Phenomenex). Ability to modify endothelial function was assessed by incubating oenothein B with bovine aortic endothelial cells and measuring endothelin-1 synthesis following previously described methods (Journal of Agricultural and Food Chemistry, 2010, 58: 4008-13).
# Biologically active biotin-labelled apple oligomeric procyanidins were prepared as follows: apple polyphenol extract was fractionated on Sephadex LH20 to obtain a fraction enriched in apple oligomeric procyanidins (OPC) tetramers to hexamers. The fraction was dried, re-dissolved in dimethyl formamide and reacted with the tetrafluorophenyl ester of triethyleneglycol-biotin (Thermo Scientific EZ-Link™ TFP-PEG3-Biotin). […]
# Ellagitannins: oenothein B (OTb, 1 μg/ml), raspberry seed extract (Rb-ET 2 μg/ml); oligomeric procyanidins (OPC): grape seed extract (GS-OPC, 1 μg/ml) and apple extract (Ap-OPC, 1 μg/ml) purified as above, were incubated either alone, or in combination, with bovine aortic endothelial cells for 6 h and 24 h (FIGS. 2(A) and 2(B)). […] Statistical differences were determined by ANOVA (**=P<0.01; ***=P<0.001 indicates significant difference compared to basal values; ^+++=P<0.001 compared to the individual components of the combinations alone). […]
# [3] = test system: endothelial nitric oxide synthase (eNOS) mRNA; assay: eNOS mRNA levels in endothelial cells by qRT-PCR; type: cell-based, bovine; details: 24 h; OTb 1 μg/ml, Ap-OPC 1 μg/ml; normalised to RNA polymerase 2; FIG. 4(B)
# Description: as §1
# endothelin-1 (ET-1) mRNA = assay: Endothelin-1 mRNA levels in endothelial cells by qRT-PCR; type: cell-based, bovine; details: 24 h; OTb 1 μg/ml, Ap-OPC 1 μg/ml; normalised to RNA polymerase 2; FIG. 4(C)
# Description: as §1
smiles,measurement,setting,value
O=C(O[C@@H]1[C@H]2OC(=O)c3cc(O)c(O)c(O)c3Oc3cc4c(c(O)c3O)-c3c(cc(O)c(O)c3O)C(=O)OC[C@H]3O[C@@H](O)[C@H](OC(=O)c5cc(O)c(O)c(O)c5Oc5cc6c(c(O)c5O)-c5c(cc(O)c(O)c5O)C(=O)O[C@@H]1[C@@H](COC6=O)O[C@H]2O)[C@@H](OC(=O)c1cc(O)c(O)c(O)c1)[C@@H]3OC4=O)c1cc(O)c(O)c(O)c1 [oenothein B],binding of biotinylated-OPC relative to biotinylated-OPC alone,[1],binding of procyanidins increases as oenothein B concentration increases
same,"KLF2 mRNA levels, ratio to control",[2],relatively insignificant
same,"endothelin-1 synthesis, percentage of basal values","endothelin-1 synthesis; 6 h incubation, OTb 1 μg/ml, Ap-OPC 1 μg/ml, FIG. 2(A)",inhibited endothelin-1 synthesis
same,endothelin-1 total synthesis,"endothelin-1 synthesis; 24 h, OTb 1 μg/ml, Ap-OPC 1 μg/ml, Example 19, FIG. 4(D)",largely unaffected
same,"endothelin-1 synthesis, percentage of basal values","endothelin-1 synthesis; 24 h incubation, OTb 1 μg/ml, Ap-OPC 1 μg/ml, FIG. 2(B)",much reduced
same,inhibition of endothelin-1 synthesis,"endothelin-1 synthesis; bovine aortic endothelial cells, FIG. 1(A), 1(B)",concentration dependent
same,"eNOS mRNA levels, ratio to control",[3],little effect
same,"endothelin-1 (ET-1) mRNA levels, ratio to control",endothelin-1 (ET-1) mRNA,largely unaffected
